Consider 104 compounds from PubChem BioAssay AID652041 (Broad Institute, 2013).

Where only a bound is given, the exact number is not on record here.

The assay concerns P. falciparum HB3 in RBCs, SYBR Green DNA fluorescence. Description: antimalarial activity against intraerythrocytic HB3 parasites – HB3 strain, red blood cells, SYBR Green, cherry-picked, dose response (AID 652041).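 Also: parasites exposed to compound for 72 hours before the DNA read.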
Consider `O=P(Nc1cccnc1)(Oc1ccccc1Cl)Oc1ccccc1Cl`, for which the AC35 is 37.1 µM.
Regarding `C=CCc1ccc(O)c(-c2ccc(O)c(CC=C)c2)c1`, the AC35 was 14.7 µM.
To `Cc1ccc(O)c(C2=NNC(c3ccc(Cl)cc3)C2)c1` (centres undefined) belongs 3.59 µM; to `CC(=O)C1=C(c2ccc(Br)cc2)C(=O)c2ccccc2C1=O`, 0.472 µM; to `CC1(C)C=Cc2c(ccc3c2OC[C@@H](c2ccc(O)cc2O)C3)O1`, 13.8 µM.
As to `COc1ccc(C(=O)On2c(-c3ccc(Br)cc3)nc3ccccc3c2=O)cc1`, the AC35 was 9.45 µM.
Consider `Cc1ccsc1/C=C/c1ccc2cccc(O)c2n1`, for which the AC35 was 11.9 µM.
To `O=C(CCCSc1ccccc1)Nc1nc(-c2ccccn2)cs1` belongs 8.91 µM.
For the compound `CC(C)C(=O)NC(c1ccco1)c1ccc2cccnc2c1O` (centres undefined), the AC35 is 1.77 µM.
On to `Clc1nc(-c2ccccn2)nc2scc(-c3ccccc3)c12`, for which the AC35 was 2.39 µM.
On to `Clc1ccc(C(Cn2ccnc2)OCc2c(Cl)cccc2Cl)c(Cl)c1` (centres undefined), for which the AC35 is 2.36 µM.
With `CCCCC(CC)c1nnc(NC(=O)c2cccs2)s1` (centres undefined), the AC35 was 37.3 µM.
As to `O=C(N/N=C/c1cc(Cl)cc([N+](=O)[O-])c1O)c1ccccc1NS(=O)(=O)c1cccs1`, the AC35 is 41.5 µM.
The value for `Cc1cccc(Oc2nc(-c3ccccn3)nc3ccccc23)c1` was 6.06 µM.
Regarding `Cc1ccccc1Oc1nc(-c2ccccn2)nc2ccccc12`, the AC35 is 4.4 µM.
Regarding `C=CCNC(=S)N1CCC(Cc2ccccc2)CC1`, the AC35 is 28 µM.
As for `O=C(N/N=C/c1ccc[nH]1)c1sc2ccccc2c1Cl`, the AC35 is 15.8 µM.
The value for `CN(Cc1ccc(Cl)s1)C(=O)CCl` was 5.21 µM; that for `COc1ccc(-c2cc(C(=O)N3CCN(c4ccccc4F)CC3)c3ccccc3n2)c(OC)c1` was 6.74 µM.
`O=C1c2cc(F)ccc2-n2c1nc1ccccc1c2=O`: the AC35 was 0.0251 µM.
Consider `CCCCOC(=O)/C=C/c1ccc(OC(=O)OC)c(OC(=O)OC)c1`, for which the AC35 was 11 µM.
For the compound `COc1cnc(-c2ccccn2)nc1Sc1ccc(C)cc1`, the AC35 is 3.64 µM.
In the case of `CCCCCCCc1ccc(-c2ccc(O)cc2)nc1`, the AC35 was 4.88 µM.
Take `CC(C)N1CCN(c2ccc(OC[C@H]3CO[C@](Cn4cncn4)(c4ccc(Cl)cc4Cl)O3)cc2)CC1`: the AC35 was 7.37 µM.
For the compound `Cc1cc(/C=C2\SC(=S)N(C)C2=O)c(C)n1-c1ccc(O)cc1`, the AC35 is 9.39 µM.
`Cn1ccc(=Nc2ccc(NC(=O)c3ccc(N=c4ccn(C)c5ccc([N+](=O)[O-])cc45)cc3)cc2)cc1`: the AC35 is under 0.0235 µM.
`CN(c1ccccc1)c1nc(N2CCCC2)nc(-n2ccnc2)n1`: the AC35 is 11.1 µM.
To `CN1CCN(C(=O)c2cc(COc3ccc(F)cc3Cl)on2)CC1c1ccccc1` (centres undefined) belongs 33.5 µM.
As to `COc1cnc(-c2ccccn2)nc1Oc1ccc(C(C)(C)C)cc1`, the AC35 was 4.82 µM.
To `Cc1nc(-c2ccccn2)nc(N(C)c2ccccc2)c1Cl` belongs 6.1 µM; to `O=S(=O)(c1ccc(Cl)cc1)N1CCC2(CC1)OCCN2S(=O)(=O)c1cccs1`, 20 µM; to `C[C@@]12CCC3[C@@](CCC4[C@@]3(C)CCC[C@@]4(C)C(=O)NCc3ccccc3)(CC1=O)C2` (some centres undefined), 21.7 µM.
As for `CCCCCOc1ccc(CSc2n[nH]c(C)n2)cc1`, the AC35 is 8.7 µM.
To `O=c1cc(CSc2ccc(Cl)cc2)nc(-c2ccccn2)[nH]1` belongs 2.3 µM; to `O=S1OC(c2ccccc2)c2cc(Cl)ccc21` (centres undefined), 16.8 µM.
For the compound `COC(=O)C1=NN(C(=O)c2cccc(Br)c2)C(O)(c2ccc(Cl)cc2)C1` (centres undefined), the AC35 was 31 µM.
Turning to `Cc1ccccc1C(=O)NNC(=S)NC(=O)c1ccc(Cl)cc1Cl`, the AC35 was 34.3 µM.
For `CC1(C)C2CCC1(C)C(OC(=O)c1ccc(O)cc1)C2` (centres undefined), the AC35 was 11.6 µM.
Take `O=C(CC1CC2CCC1C2)Nc1nc(-c2ccccn2)cs1` (centres undefined): the AC35 was 3.99 µM.
To `CC1(C(=O)OCC(=O)Nc2ccc3ccccc3c2)CC1(Cl)Cl` (centres undefined) belongs 31.2 µM; to `COc1cnc(-c2ccccn2)nc1Sc1ccccc1`, 9.03 µM; to `CCOC(=O)c1cnc(-n2nc(C)cc2C)nc1NC1CCCC1`, 4.23 µM.
Take `CCn1c(CNc2ccc(Cl)cc2)nnc1SCc1ccc(Cl)cc1`: the AC35 is 38.6 µM.
On to `Cc1ccc(Sc2ccc(NC(=O)CCl)cc2)cc1C`, for which the AC35 is 0.321 µM.
Regarding `COc1ccc(-c2oc3ccccc3c2C#Cc2cncn2C)cc1`, the AC35 was 0.87 µM.
As to `Cc1cccc(Nc2nc(-c3ccc(O)cc3O)cs2)n1`, the AC35 is 18.6 µM.
To `CCc1ccc(CN(C)C(=O)c2cc(COc3cccc(C(F)(F)F)c3)on2)nc1` belongs 29.1 µM; to `Cc1cc(-c2ccccc2)n(-c2cc(N/N=C/c3ccccc3O)ncn2)n1`, 3.85 µM; to `O=C(c1ccc(-c2ccccc2)cc1)C1CCCN(C(=O)c2cncs2)C1` (centres undefined), 7.38 µM.
In the case of `Cc1ccc(-c2c3c(nc4sc(C(N)=O)c(N)c24)CCCC3)o1`, the AC35 was 37.6 µM.
Consider `O=C1Nc2c(Br)cccc2C1=O`, for which the AC35 is 30.5 µM.
In the case of `c1ccc(C(=NNc2nc3ccccc3s2)c2ccccn2)cc1`, the AC35 was 2.22 µM.
The value for `Cc1ccc2oc(-c3ccccc3)c(C(=O)O)c(=O)c2c1` was 20.3 µM; that for `CCCCC(=O)NC(c1ccco1)c1cc(Cl)c2cccnc2c1O` (centres undefined) was 1.62 µM.
Take `Cc1ccc(Nc2cc(C)nn2-c2nc(C)cc(C)n2)cc1`: the AC35 is 2.75 µM.
On to `C(=C1c2ccccc2-c2ccccc21)c1ccncc1`, for which the AC35 is 18.2 µM.
Turning to `O=C(Nc1nc(-c2ccccn2)cs1)c1ccc(Br)s1`, the AC35 is 0.662 µM.
Regarding `Cc1cc(Nc2ccccc2)nn1C(=O)c1ccccc1`, the AC35 was 43.1 µM.
In the case of `O=C(CN1CC[n+]2c(-c3cccs3)csc21)c1ccc(-c2ccccc2)cc1`, the AC35 is 1.46 µM.
Consider `CC(C)(C)n1nc(Cc2cccc3ccccc23)c2c(N)ncnc21`, for which the AC35 is 23.6 µM.
Take `Oc1ccc(/C=N/Nc2ccc(C(F)(F)F)cn2)c(O)c1`: the AC35 is 6.46 µM.
Consider `COc1cccc(/C=N/Nc2ncnc3scc(-c4ccccc4)c23)c1O`, for which the AC35 is 1.7 µM.
Consider `COc1cc(NS(=O)(=O)c2ccc(C)cc2)c2ncccc2c1`, for which the AC35 is 6.38 µM.
Turning to `C[n+]1c2cc(N)ccc2cc2ccc(N)cc21`, the AC35 was 0.0524 µM.
Take `CC1=CC(=O)C=C(C)C1=NOS(=O)(=O)c1ccccc1`: the AC35 is 5.53 µM.
With `O=[N+]([O-])c1ccc2c(OCc3nnc(-c4ccccc4Br)o3)ncnc2c1`, the AC35 is 21.8 µM.
In the case of `Oc1ccc(N=Nc2ccc3c(c2)OCCO3)c2cccnc12`, the AC35 was 0.854 µM.
To `Cc1nc2ccc(C(C(F)(F)F)(C(F)(F)F)C(F)(F)F)cc2[nH]1` belongs 11.2 µM.
As for `CCN(CC)c1ccc(/C=N/NC(=O)c2c(Cl)cnn2C)c(O)c1`, the AC35 is 2.66 µM.
Regarding `CN(C)c1ccc(C=c2c3ccccc3n3c2c2c([n+]3C)CCCC2)cc1`, the AC35 was 0.228 µM.
Regarding `O=C(NCCC1=CCCCC1)c1c(O)nc2sccn2c1=O`, the AC35 is 16.2 µM.
With `C=CCNc1nc(-c2ccccn2)nnc1-c1ccccc1`, the AC35 is 2.22 µM.
For the compound `CCCC(C)Sc1nc2c([nH]1)c(=S)n(C)c(=O)n2C` (centres undefined), the AC35 is 6.67 µM.
On to `Cc1cc(C(=O)COC(=O)Cc2n[nH]c(=O)c3ccccc23)c(C)n1-c1cccc(C(F)(F)F)c1`, for which the AC35 is 4.22 µM.
On to `O=c1c2ccccc2c(-c2ccc(O)cc2)nn1-c1cccc(C(F)(F)F)c1`, for which the AC35 is 3.52 µM.
In the case of `O=c1c2ccccc2nc(-c2cccc(Cl)c2)n1O`, the AC35 was 28.2 µM.
The value for `O=C(c1ccccc1)N1C(=O)C(c2ccccc2)Oc2ccccc21` (centres undefined) was 37.1 µM; that for `CCCn1nc(C(=O)N2CCN(S(=O)(=O)c3ccc(C)c(C)c3)CC2)c2ccccc2c1=O` was 8.13 µM; that for `CCC(NC(=S)NCc1ccc(F)cc1)c1ccc(C(C)C)cc1` (centres undefined) was 11.3 µM.
The value for `CC/C(=N/NC(=O)c1ccccc1O)c1c(C)[nH]n(-c2ccccc2)c1=O` was 28.1 µM; that for `CCCCc1ccc(-n2c(Cc3cccs3)n[nH]c2=S)cc1` was 29.2 µM.
Take `COc1ccc(N=N/C(=C\O)C(=O)c2cccs2)cc1`: the AC35 is 7.99 µM.
To `CCC(=O)NC(c1ccco1)c1cc(Cl)c2cccnc2c1O` (centres undefined) belongs 0.185 µM.
On to `CCCCNc1c(-c2cccc(Sc3ccc(OC)cc3)c2)nc2ccccn12`, for which the AC35 is 8.77 µM.
The value for `CCCCCCC(Cl)(Cn1ccnc1)c1ccccc1` (centres undefined) was 3.48 µM; that for `CCCS(=O)(=O)c1c(S(=O)(=O)CCC)c2c(C)cccn2c1C(=O)N/N=C/c1cc(O)cc(O)c1` was 10.5 µM; that for `Oc1ccccc1-c1cc(-c2ccc3c(c2)OCCO3)n[nH]1` was 9.9 µM.
Regarding `O=[N+]([O-])c1cccc(C=NNc2ccc3ccccc3n2)c1O`, the AC35 was 6.73 µM.
For `Oc1c(C(Nc2cccc(C(F)(F)F)c2)c2ccncc2)ccc2cccnc12` (centres undefined), the AC35 is 1.39 µM.
`O=c1c(O)c(-c2ccccc2)oc2ccccc12`: the AC35 was 21.6 µM.
To `O=C(Oc1c(Cl)cc(Cl)c2cccnc12)c1cccs1` belongs 19 µM; to `CCCCNc1c(-c2ccc(-c3ccc(OC)cc3)c(OC)c2)nc2ccccn12`, 4.29 µM; to `CCOC(=O)c1cc2c(=Cc3ccc(N(C)C)cc3)c3ccccc3n2[n+]1C`, 2.44 µM.
Consider `O=C(CSc1ccc(-c2ccccn2)nn1)NCc1ccc(F)cc1`, for which the AC35 is 37.5 µM.
Turning to `Cc1ccc(Cl)cc1NC1=C/C(=N\S(=O)(=O)c2cccs2)c2ccccc2C1=O`, the AC35 was 0.119 µM.
Regarding `Cc1ccc(C)c(/C=C/C(=O)c2ccccc(=O)c2O)c1`, the AC35 was 8.27 µM.
As for `[O-][n+]1cccc2c(Br)cc(Br)c(O)c21`, the AC35 is 2.77 µM.
As for `O=[N+]([O-])c1cc(C(F)(F)F)ccc1NCCc1c[nH]c2ccc(O)cc12`, the AC35 was 24.6 µM.
Consider `CCC(C)Sc1cccc(-c2nc3ccccn3c2NCc2ccccc2)c1` (centres undefined), for which the AC35 is 12.1 µM.
Consider `NC(=Nc1nc(-c2ccccn2)cc2ccccc12)c1ccccn1`, for which the AC35 was 0.22 µM.
On to `CCCc1cc(C(N)=O)c(NC(=O)c2cc(C)on2)s1`, for which the AC35 is 39.7 µM.
The value for `CCC(C)c1ccc(NC(=S)NCCn2cc(Br)cn2)cc1` (centres undefined) was 10.5 µM.
To `S=C(Nc1ccc(Oc2ccccc2)cc1)NC1CCCCCC1` belongs 4.03 µM; to `CCN(CC)C(=O)CSc1ncnc2sc(-c3ccccc3)cc12`, 36.6 µM.
